{"source": "patent US8697649B2", "about": "“Polypeptides, nucleic acid molecule encoding polypeptides, and uses of polypeptides” (China Medical University, priority 2012, dated 2014)", "key": {"[1]": {"target": "T1, insulin receptor (Homo sapiens, UniProt P06213)", "T1 construct": "endogenous in cells; host or cells: IM-9 human lymphocyte cell line", "assay": "Whole cell receptor binding assay with 125I-labeled insulin (IM-9 cells)", "experimental": "After incubation, the cells were chilled, centrifuged at 2000 rpm for 10 min at 4° C., and the pellets were washed twice with an ice-cold wash buffer (10 mmol/L Tris and 150 mmol/L NaCl, pH 7.6). The pellet was counted by a gamma counter. The assays were performed at least three times for each polypeptide. […] The lower value of EC50 represents a stronger effect on promoting the binding."}, "[2]": {"system": "diabetic mice (STZ-induced)", "assay": "Glycated hemoglobin value assay", "type": "in vivo", "details": "1×10^−6 mole/kg oral, after 28 days", "experimental": "Glycated hemoglobin value (HbAlc) is the concentration of glucose attached on red blood cells in the blood of an organism. In general, a higher concentration of blood sugar reflects a higher glycated hemoglobin value, while the glycated hemoglobin value is a standard for evaluating the effect of a medicament on treating diabetes. Therefore, in this example, the effect of the polypeptide on controlling the blood sugar values of the mice were evaluated by measuring the glycated hemoglobin value.\nIn the experimental group, the polypeptides (1×10^−6 mole/kg body weight, 20 μl) were orally administrated to each mouse in the experimental group. In the control group, each mouse was administrated by 20 μl water. The glycated hemoglobin value was measured after 28 days."}, "[3]": {"system": "diabetic mice", "assay": "Measurement of renal index", "type": "in vivo", "details": "oral, after 28 days, blood", "experimental": "After 28 days, the kidney indexes (BUN and CRE) in the blood of these mice were measured to evaluate the effects of these polypeptides on the renal disorders caused by diabetes."}, "[4]": {"system": "diabetic mice", "assay": "Measurement of liver index", "type": "in vivo", "details": "oral, after 28 days", "experimental": "The polypeptide of IRBP-50-68 (SEQ ID NO:6) was orally administrated to the diabetic mice in the experimental group by the same method as described in Example 14. After 28 days, the liver indexes (GOT and GPT) of these mice were measured to evaluate the effect of the polypeptide on the hepato disorders caused by diabetes in diabetic mice."}, "[5]": {"system": "mice (BALB/c, STZ-induced, ob/ob)", "assay": "Blood sugar reducing assay", "type": "in vivo", "details": "2.5×10^−9 mole/kg intraperitoneal, 150 minutes", "experimental": "IRBP-1-68 (SEQ ID NO:1), the polypeptides having the segmental amino acid sequences of IRBP, and the polypeptides derived from the substitution of multiple amino acids in the segmental amino acid sequences were analyzed by a blood sugar reducing assay. […] The polypeptides (100 μl, 2.5×10^−9 mole/kg body weight) as shown in Table 11 were administrated to each mouse in an experimental group by intraperitoneal injection. Each mouse in the control group was administrated with 100 μl water. […] After 150 minutes, blood samples were collected from the mouse tails, while the blood sugar value was measured by a glucometer (ACCU-CHEK Advantage, Roche, Germany). The blood sugar values of the mice in the experimental group and control group were compared and analyzed."}, "[6]": {"target": "insulin receptor tyrosine kinase (Homo sapiens, UniProt P06213)", "assay": "Receptor binding assay by insulin receptor tyrosine kinase activity", "type": "biochemical", "details": "poly(Glu,Tyr) substrate, [γ-32P]ATP", "experimental": "The sample was placed in an ice bath for 10 minutes. Then, TCA was added thereinto to precipitate the substrate (poly(Glu,Tyr)) on a filter paper."}, "[7]": {"system": "3T3-L1 adipocytes", "assay": "Glucose uptake assay", "type": "cell-based", "details": "1 nM insulin plus IRBP-1-68, 30 min, [3H]-2-deoxy-D-glucose 10 min", "excerpt": "A key step for modulating blood sugar is that adipose tissue can uptake glucose from the blood and thereby, reduce blood sugar. Accordingly, this example further used 3T3-L1 adipocytes as an assay platform to conduct the glucose uptake assay. […] The cells were washed three times with ice-cold phosphate buffered saline (PBS) and then solubilized in 0.1% SDS."}, "[8]": {"system": "3T3-L1 adipocytes", "assay": "Microarray analysis", "type": "cell-based", "details": "expression increased or decreased up to 2 folds", "experimental": "Total RNAs were extracted from 3T3-L1 adipocytes which were or were not treated with IRBP-1-68 (SEQ ID NO:1) using RNeasy Mini kit (Qiagen, Valencia, Calif., USA). Total RNA was evaluated using Agilent 2100 bioanalyzer (Agilent Technologies, Santa Clara, Calif., USA). The RNA sample with an RNA integrity number greater than 8.0 was selected. Microarray analysis was performed as described previously (see Cheng, W. Y. et al., 2009, Comprehensive evaluation of a novel nuclear factor-κB inhibitor, quinoclamine, by transcriptomic analysis. Brit. J. Pharmacol. 157(5): 746-756; Cheng, H. M. et al., 2010, Application of bioactivity database of Chinese herbal medicine on the therapeutic prediction, drug development, and safety evaluation. J. Ethnopharmacol. 132 (2): 429-437; and Hsiang, C. Y. et al., 2009, Nuclear factor-κB bioluminescence imaging-guided transcriptomic analysis for the assessment of hoist-biomaterial interaction in vivo. Biomaterials 30 (17): 3042-3049, which are entirely incorporated hereinto by reference)."}, "[9]": {"target": "T1, insulin receptor", "assay": "Insulin receptor autophosphorylation assay in IM-9 cells", "type": "cell-based", "details": "stimulated 15 min at 37° C., immunoblotting, FIG. 2", "experimental": "The assay was conducted by the following steps: The human lymphocyte cell line (IM-9) was serum-starved (RPMI medium supplemented with 0.1% BSA) for 16 h and then stimulated with IRBP-1-68 (SEQ ID NO:1) for 15 min at 37° C., and washed with cold PBS. The cells were lysed to obtain about […] of total proteins, while the immunoprecipitation was conducted by the anti-insulin receptor polyclonal antibody (C-19). Then, the protein was adsorbed onto protein G-agarose beads (Gibco-BRL, Gaithersburg, Md.) for 2 h at 4° C., resolved by SDS-PAGE, and transferred to an Immobilon-P membrane by electroblotting. The membrane was incubated with antiphosphotyrosine antibody (4G10) overnight at 4° C. to conduct the immunoblotting analysis. In FIG. 2, the broader band of the immunoblotting analysis represents a higher protein expression level."}, "[10]": {"system": "3T3-L1 adipocytes", "assay": "Western blotting analysis of insulin signal pathway-related proteins", "type": "cell-based", "details": "3T3-L1 adipocytes treated 16 hours, FIG. 3", "experimental": "3T3-L1 adipocytes were cultured at 37° C. for 24 hours, treated with IRBP-1-68 (SEQ ID NO:1) for 16 hours, collected using a cell scraper after being washed with ice-cold PBS, and lysed with a 300 μl sample buffer (62.5 mM Tris-HCl, pH 6.8, 2% sodium dodecyl sulfate, 10% glycerol, 50 mM dithiothreitol, 0.1% bromophenol blue). The protein concentration of the cell lysate was determined with a Bradford method (Bio-Rad, Hercules, Calif., USA). The proteins (10 μg) were separated by SDS-PAGE and the protein bands were then transferred electrophoretically to nitrocellulose membranes (Amersham Pharmacia Biotech Inc., Piscataway, N.J., USA). Membranes were blocked in blocking buffer (20 mM Tris-HCl, pH 7.6, 140 mM NaCl, 0.1% Tween-20, 5% skim milk powder) and probed with anti-Akt, anti-phospho-Akt (Ser473), anti-phospho-Akt (Thr308), anti-phospho-PTEN (phosphatase and tensin homolog deleted on Chromosome ten) (Ser380), anti-phospho-GSK-3β (glycogensynthasekinase-3β) (Ser9), anti-phospho-Raf (Ser259), anti-phospho-PDK1 (phosphoinositide-dependent kinase 1) (Ser241) antibodies (Cell Signaling Technology, Beverly, Mass., USA). The result was shown in FIG. 3, wherein the values shown in FIG. 3 represent the intensity of the bands in western blotting analysis. A higher value represents a higher expression level of the target protein."}, "[11]": {"system": "3T3-L1 adipocytes", "assay": "Immunochemical analysis of GLUT4", "type": "cell-based", "details": "FIG. 4", "experimental": "Immunochemical analysis was conducted by the following method: 3T3-L1 adipocytes were cultured and fixed on a cover slide, and incubated with a 1:50 diluted mouse monoclonal antibody against GLUT4 (Millipore, Billerica, Mass., USA) at 4° C. overnight. Then, the cells were incubated with biotinylated secondary antibody (Zymed Laboratories, South San Francisco, Calif., USA) at room temperature for 20 min. Then, the slides were incubated with avidin-biotin complex reagent and stained with 3,3′-diaminobenzidine (HISTOSTAIN®-Plus Kit, Zymed Laboratories, South San Francisco, Calif., USA)."}, "[12]": {"details": "STZ-induced mice, glucose 1 g/kg"}}, "note": "Entries after “also recorded” stand apart in the source; their conditions may differ. Read-outs that look alike come from different tables or passages of the source. Where no end group is shown, it is not given here.", "data": [{"sequence": "DFRCDRVRVWVTERGIVARPPTIG [IRBP-45-68]", "values": [{"measurement": "EC50", "setting": "[1]; IM-9 cells, 16° C., 90 min", "result": "> 25", "unit": "nM"}]}, {"sequence": "GAAAKAVIERENPRVRVI [IRBP-17-35]", "values": [{"measurement": "EC50", "setting": "[1]", "result": "> 25", "unit": "nM"}]}, {"sequence": "IVARPPAIG [IRBP-MC]", "values": [{"measurement": "EC50", "setting": "[1]; IM-9 cells, 16° C., 90 min", "result": "0.86 ± 0.05", "unit": "nM"}]}, {"sequence": "IVARPPTIG [IRBP-60-68]", "values": [{"measurement": "glycated hemoglobin value", "setting": "[2]", "result": "5.73 ± 0.11", "unit": "%"}, {"measurement": "BUN", "setting": "[3]", "result": "73.17 ± 29.95"}, {"measurement": "CRE", "setting": "[3]", "result": "0.17 ± 0.04"}, {"measurement": "EC50", "setting": "[1]", "result": "0.77 ± 0.04", "unit": "nM"}]}, {"sequence": "IVYQVPTIG [IRBP-MT]", "values": [{"measurement": "EC50", "setting": "[1]; IM-9 cells, 16° C., 90 min", "result": "0.77 ± 0.02", "unit": "nM"}]}, {"sequence": "RVRVWVTERGIVARPPTIG [IRBP-50-68]", "values": [{"measurement": "glycated hemoglobin value", "setting": "[2]", "result": "5.93 ± 0.55", "unit": "%"}, {"measurement": "BUN", "setting": "[3]", "result": "107.25 ± 42.99"}, {"measurement": "CRE", "setting": "[3]", "result": "0.191 ± 0.12"}, {"measurement": "GOT", "setting": "[4]", "result": "247.89 ± 97.38"}, {"measurement": "GPT", "setting": "[4]", "result": "135.72 ± 30.72"}]}, {"sequence": "RYKYQCFYI (optimal docking polypeptide of insulin receptor) [IRBP-9B]", "values": [{"measurement": "blood sugar inhibition ratio", "setting": "[5]; BALB/c mice, glucose 4 g/kg", "result": "61.0 ± 2.5", "unit": "%"}, {"measurement": "activity of insulin receptor tyrosine kinase", "setting": "[6]", "result": "79.76±5.64", "unit": "U/ml"}]}, {"sequence": "RYKYQCWYI (optimal docking polypeptide of insulin receptor) [IRBP-9D]", "values": [{"measurement": "activity of insulin receptor tyrosine kinase", "setting": "[6]", "result": "65.95 ± 1.74", "unit": "U/ml"}]}, {"sequence": "RYKYQWFYI (optimal docking polypeptide of insulin receptor) [IRBP-9A]", "values": [{"measurement": "blood sugar inhibition ratio", "setting": "[5]; [12]", "result": "34.2 ± 13.6", "unit": "%"}, {"measurement": "activity of insulin receptor tyrosine kinase", "setting": "[6]", "result": "40.34 ± 1.94", "unit": "U/ml"}]}, {"sequence": "RYKYQWWYI (optimal docking polypeptide of insulin receptor) [IRBP-9C]", "values": [{"measurement": "blood sugar inhibition ratio", "setting": "[5]; [12]", "result": "22.6 ± 9.0", "unit": "%"}, {"measurement": "activity of insulin receptor tyrosine kinase", "setting": "[6]", "result": "44.18 ± 3.61", "unit": "U/ml"}]}, {"sequence": "SRCQGKSSWPQLVGSTGAAAKAVIERENPRVRAVIIKVGSGATKDFRCDRVRVWVTERGIVARPPTIG [IRBP-1-68]", "values": [{"measurement": "Ratio (radioactivity, glucose uptake)", "setting": "[7]", "result": "1.79 ± 0.49"}, {"measurement": "blood sugar inhibition ratio", "setting": "[5]; BALB/c mice, glucose 4 g/kg", "result": "68.9 ± 0.9", "unit": "%"}, {"measurement": "blood sugar inhibition ratio", "setting": "[5]; [12]", "result": "37.3 ± 3.8", "unit": "%"}, {"measurement": "blood sugar inhibition ratio", "setting": "[5]; ob/ob mice, glucose 1 g/kg", "result": "55.6 ± 12.9", "unit": "%"}, {"measurement": "number of the genes with changed expression level (total gene number of the pathway)", "setting": "[8]; adipocytokine signal pathway", "result": "16 (71)"}, {"measurement": "number of the genes with changed expression level (total gene number of the pathway)", "setting": "[8]; insulin signal pathway", "result": "28 (136)"}, {"measurement": "insulin receptor autophosphorylation (ratio of phosphorylated insulin receptor to insulin receptor)", "setting": "[9]", "result": "increased along with the increment of IRBP-1-68 (SEQ ID NO:1) concentration; also recorded: can induce insulin receptor autophosphorylation"}, {"measurement": "protein expression levels of insulin signal pathway-related genes (PDK-1, phosphorylated-AKt Thr 308, phosphorylated-AKt Ser 473, GLUT4)", "setting": "[10]", "result": "can increase the protein expression levels"}, {"measurement": "GLUT4 expression by immunochemical staining", "setting": "[11]", "result": "can promote 3T3-L1 adipocytes to express GLUT4"}]}, {"sequence": "VIIKVGSGATKDFRCDRVR [IRBP-34-52]", "values": [{"measurement": "EC50", "setting": "[1]; IM-9 cells, 16° C., 90 min", "result": "> 25", "unit": "nM"}]}]}
